Results from patent publication US11925702B2, “Methods for extracting compound from ginseng, ginseng extract comprising the compound and composition for enhancing skin barrier comprising the same” (AMOREPACIFIC CORPORATION, priority 2022, dated 2024).

How the values were obtained:
Assay type in all cases: cell-based, human
Occludin (OCLN) gene = Occludin (OCLN) gene expression in NHEK by Taqman real-time PCR; settings: isolated compound added to NHEK culture media, concentration series (FIG. 6)
Description: (§1) (1) Normal human epidermal keratinocytes (NHEK) were cultured in 6-well culture media. The anaerobic-naturally fermented ginseng extract of the preparation example and an unfermented fresh ginseng extract were respectively added to the NHEK media and cultured. After harvesting the cells on the 4th day, separating RNA therefrom, and synthesizing cDNA through RT-PCR (reverse transcriptional polymerase chain reaction), the synthesized cDNA was measured with respect to an expression level of the Filaggrin gene through Taqman real-time PCR, and the results are shown in FIG. 4.
(§2) (2) The compound represented by Chemical Formula 1-1, which was separated from the anaerobic-naturally fermented ginseng extract of the preparation example, was added to an NHEK culture media and treated in the same manner as in (1), and then measured with respect to each gene expression level of Filaggrin, Occludin, and ATP-binding cassette sub-family A member 12 (ATP-binding cassette transporter 12), and the results are shown in FIGS. 5 to 7.

[1] = test system: ATP-binding cassette sub-family A member 12 (ABCA12) gene; assay: ABCA12 gene expression in NHEK by Taqman real-time PCR; settings: isolated compound added to NHEK culture media, concentration series (FIG. 7)
Description: as §1, §2

Filaggrin (FLG) gene = Filaggrin (FLG) gene expression in NHEK by Taqman real-time PCR; settings: isolated compound added to NHEK culture media, concentration series (FIG. 5)
Description: as §1, §2

`CC(C)=CCC[C@](C)(O[C@@H]1O[C@H](CO[C@@H]2O[C@H](CO)[C@@H](O)[C@H](O)[C@H]2O)[C@@H](O)[C@H](O)[C@H]1O)[C@H]1CC[C@]2(C)[C@@H]1[C@H](O)C[C@@H]1[C@@]3(C)CC[C@H](O[C@@H]4O[C@H](CO)[C@@H](O)[C@H](O)[C@H]4O)C(C)(C)[C@@H]3CC[C@]12C` [Chemical Formula 1-1] was tested, and the “gene expression level of Occludin (OCLN)” value (Occludin (OCLN) gene) was “increased, as a concentration thereof was increased”, the “gene expression level of ATP-binding cassette sub-family A member 12 (ABCA12)” value [1] was “increased, as a concentration thereof was increased” and the “gene expression level of Filaggrin (FLG)” value (Filaggrin (FLG) gene) was “increased, as a concentration thereof was increased”.
